Data: article PMC8767786 (Nature structural & molecular biology, 2021)

Biological target: T1, TRPM5 (Danio rerio, UniProt S5UH55)
T1 sequence (S5UH55 1-1165): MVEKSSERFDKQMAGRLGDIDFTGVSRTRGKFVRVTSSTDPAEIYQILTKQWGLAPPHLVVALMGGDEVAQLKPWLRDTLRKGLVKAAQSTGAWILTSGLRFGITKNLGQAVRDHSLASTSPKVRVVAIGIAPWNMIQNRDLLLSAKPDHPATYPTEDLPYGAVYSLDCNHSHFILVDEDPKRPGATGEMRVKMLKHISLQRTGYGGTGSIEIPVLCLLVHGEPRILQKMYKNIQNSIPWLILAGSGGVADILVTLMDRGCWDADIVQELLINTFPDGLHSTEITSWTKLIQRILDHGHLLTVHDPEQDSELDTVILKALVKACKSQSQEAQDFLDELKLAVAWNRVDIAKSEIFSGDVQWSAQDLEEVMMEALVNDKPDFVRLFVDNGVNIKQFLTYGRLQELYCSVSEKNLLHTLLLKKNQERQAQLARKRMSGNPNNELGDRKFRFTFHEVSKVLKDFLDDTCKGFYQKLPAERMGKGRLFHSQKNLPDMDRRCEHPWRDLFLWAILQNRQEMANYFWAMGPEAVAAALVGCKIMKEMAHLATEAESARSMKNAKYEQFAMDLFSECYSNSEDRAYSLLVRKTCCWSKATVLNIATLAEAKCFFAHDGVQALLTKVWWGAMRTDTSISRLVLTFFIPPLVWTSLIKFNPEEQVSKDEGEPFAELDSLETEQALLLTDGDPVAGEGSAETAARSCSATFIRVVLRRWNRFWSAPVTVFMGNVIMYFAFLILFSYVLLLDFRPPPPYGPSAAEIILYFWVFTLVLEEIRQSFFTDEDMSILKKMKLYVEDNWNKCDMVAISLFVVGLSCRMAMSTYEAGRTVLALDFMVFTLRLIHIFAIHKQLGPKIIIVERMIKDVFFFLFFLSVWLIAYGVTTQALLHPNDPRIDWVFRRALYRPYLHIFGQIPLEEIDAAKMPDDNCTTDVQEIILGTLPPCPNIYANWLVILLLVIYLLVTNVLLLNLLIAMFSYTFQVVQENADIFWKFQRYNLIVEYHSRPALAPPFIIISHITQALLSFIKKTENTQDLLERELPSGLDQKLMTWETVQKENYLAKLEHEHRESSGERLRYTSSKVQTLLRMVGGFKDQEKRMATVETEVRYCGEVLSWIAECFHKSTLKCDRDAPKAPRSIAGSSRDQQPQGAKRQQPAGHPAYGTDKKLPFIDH
Test: cryo-EM structure
Assay type: cell-based

IC50: ~2.4 nM
Structure (SMILES): COc1ccc(C=NNC(=O)Cc2cccc3ccccc23)cc1OC [NDNA, N’-(3,4-dimethoxybenzylidene)-2-(naphthalen-1-yl)acetohydrazide]
